pEC50: −log10 of the molar value. Activity calls are given as the source filed them. No cut-off for these calls is given here.
What was measured:
[1] = Cytotoxicity against CRFK cells assessed as cell viability after 4 to 6 days by formazan-based MTS assay; parameters: species or system Felis catus; conditions: cat
[2] = tested on: Mycobacterium kansasii; test: Antimycobacterial activity against Mycobacterium kansasii CNCTC My 235/80 incubated for 5 to 7 days by microplate alamar blue assay; type: functional
[3] = tested on: Mycobacterium tuberculosis; test: Antimycobacterial activity against Mycobacterium tuberculosis H37Rv CNCTC My 331/88 incubated for 10 to 14 days by microplate alamar blue assay; type: functional
[4] = tested on: Mycobacterium avium; test: Antimycobacterial activity against Mycobacterium avium CNCTC My 152/73 after 5 days by microplate alamar blue assay; type: functional; conditions: CNCTC My 152/73, 120 h
[5] = tested on: Influenza A virus; test: Antiviral activity against Influenza A virus (A/Puerto Rico/8/(H1N1)) assessed as inhibition of virus-induced cytopathic effect after 3 to 6 days by formazan-based MTS assay; type: functional, organism-based
[6] = Cytotoxicity against HEL cells assessed as cell viability after 4 to 6 days by microscopic analysis; type: cell-based; conditions: human
[7] = tested on: Mycobacterium avium; test: Antimycobacterial activity against Mycobacterium avium CNCTC My 80/72 after 5 days by microplate alamar blue assay; type: functional; conditions: CNCTC My 80/72, 120 h
[8] = Cytotoxicity against human HeLa cells assessed as cell viability after 4 to 6 days by microscopic analysis; type: cell-based
[9] = Lipophilicity, logK of the compound by RP-HPLC analysis; type: physicochemical
[10] = Cytotoxicity against African green monkey Vero cells assessed as cell viability after 4 to 6 days by microscopic analysis; type: cell-based; conditions: chlorocebus sabaeus
[11] = Cytotoxicity against MDCK cells assessed as cell viability after 4 to 6 days by formazan-based MTS assay; parameters: species or system Canis lupus familiaris; conditions: dog
[12] = tested on: Influenza A virus; test: Antiviral activity against Influenza A virus (A/Puerto Rico/8/(H1N1)) assessed as inhibition of virus-induced cytopathic effect after 3 to 6 days by microscopic analysis; type: functional, organism-based
[13] = Cytotoxicity against MDCK cells assessed as cell viability after 4 to 6 days by microscopic analysis; type: cell-based, Canis lupus familiaris; conditions: dog
[14] = tested on: Pichia kudriavzevii; test: Antifungal activity against Candida krusei E28 after 24 to 48 hrs by broth microdilution method; type: functional
[15] = tested on: Aspergillus fumigatus; test: Antifungal activity against Aspergillus fumigatus 231 after 24 to 48 hrs by broth microdilution method; type: functional
[16] = tested on: Nakaseomyces glabratus; test: Antifungal activity against Candida glabrata 20/I after 24 to 48 hrs by broth microdilution method; type: functional
[17] = tested on: Klebsiella pneumoniae; test: Antibacterial activity against Klebsiella pneumoniae D 11750/08 after 24 to 48 hrs by broth microdilution method; type: functional
[18] = tested on: Candida tropicalis; test: Antifungal activity against Candida tropicalis 156 after 24 to 48 hrs by broth microdilution method; type: functional
[19] = tested on: Trichosporon asahii; test: Antifungal activity against Trichosporon asahii 1188 after 24 to 48 hrs by broth microdilution method; type: functional
[20] = tested on: Pseudomonas aeruginosa; test: Antibacterial activity against Pseudomonas aeruginosa CCM 1961 after 24 to 48 hrs by broth microdilution method; type: functional
[21] = tested on: Escherichia coli; test: Antibacterial activity against Escherichia coli CCM 4517 after 24 to 48 hrs by broth microdilution method; type: functional
[22] = tested on: Klebsiella pneumoniae; test: Antibacterial activity against ESBL positive Klebsiella pneumoniae J 14368/08 after 24 to 48 hrs by broth microdilution method; type: functional
[23] = tested on: Lichtheimia corymbifera; test: Antifungal activity against Lichtheimia corymbifera 272 after 24 to 48 hrs by broth microdilution method; type: functional
[24] = tested on: Trichophyton mentagrophytes; test: Antifungal activity against Trichophyton mentagrophytes 445 after 72 to 120 hrs by broth microdilution method; type: functional
[25] = tested on: Candida albicans; test: Antifungal activity against Candida albicans ATCC 44859 after 24 to 48 hrs by broth microdilution method; type: functional
[26] = tested on: Staphylococcus aureus; test: Antibacterial activity against methicillin-resistant Staphylococcus aureus H 5996/08 after 24 to 48 hrs by broth microdilution method; type: functional, organism-based

Row | Structure (SMILES) | CC50 [1] [µM] | MIC [2] | MIC [3] | MIC [4] [µg/mL] | pEC50 [5] | MCC [6] [µM] | MIC [7] [µg/mL] | MCC [8] [µM] | log K [9] | MCC [10] [µM] | CC50 [11] [µM] | pEC50 [12] | MCC [13] [µM] | MIC [14] [µM] | MIC [15] [µM] | MIC [16] [µM] | MIC95 [17] [µM] | MIC [18] [µM] | MIC [19] [µM] | MIC95 [20] [µM] | further results
1 | O=C(NCc1ccccc1)c1nccnc1NCc1ccccc1 | > 100 | > 100 µg/mL | > 100 µg/mL | > 100 | < 4.00 | > 100 | > 100 | > 100 | 1.04 | > 100 | > 100 | < 4.00 | 20 | – | – | – | – | – | – | – | –
2 | CCCCCNc1nccnc1C(=O)NCc1ccccc1 | > 100 | > 100 µg/mL | > 100 µg/mL | > 100 | < 4.00 | ≥ 100 | > 100 | > 100 | 1.321 | > 100 | > 100 | < 4.00 | ≥ 20 | > 500 | > 500 | > 500 | > 500 | > 500 | > 500 | > 500 | MIC95 [21]: > 500 µM; MIC95 [22]: > 500 µM; MIC [23]: > 500 µM; MIC [24]: > 500 µM; MIC [25]: > 500 µM
3 | CCCCCCNc1cncc(C(=O)NCc2ccccc2)n1 | > 100 | 40 µM | 20 µM | > 100 | < 4.00 | > 100 | > 100 | > 100 | 0.986 | 100 | 9.5 | < 4.00 | 20 | > 500 | > 500 | > 500 | > 500 | > 500 | > 500 | > 500 | Activity [26]: inactive; MIC95 [21]: > 500 µM; MIC95 [22]: > 500 µM; MIC [23]: > 500 µM; MIC [24]: > 500 µM; MIC [25]: > 500 µM
4 | CCCCCNc1cncc(C(=O)NCc2ccccc2)n1 | > 100 | 84 µM | 42 µM | > 100 | < 4.00 | > 100 | > 100 | > 100 | 0.768 | > 100 | 33 | < 4.00 | 20 | > 500 | > 500 | > 500 | > 500 | > 500 | > 500 | > 500 | Activity [26]: inactive; MIC95 [21]: > 500 µM; MIC95 [22]: > 500 µM; MIC [23]: > 500 µM; MIC [24]: > 500 µM; MIC [25]: > 500 µM
5 | O=C(NCc1ccccc1)c1cncc(NCc2ccccc2)n1 | – | > 100 µg/mL | 157 µM | > 100 | – | – | > 100 | – | 0.483 | – | – | – | – | – | – | – | – | – | – | – | –
6 | CCCCNc1cncc(C(=O)NCc2ccccc2)n1 | > 100 | 176 µM | 44 µM | > 100 | < 4.00 | > 100 | > 100 | > 100 | 0.549 | 100 | 66 | < 4.00 | 100 | > 500 | > 500 | > 500 | > 500 | > 500 | > 500 | > 500 | Activity [26]: inactive; MIC95 [21]: > 500 µM; MIC95 [22]: > 500 µM; MIC [23]: > 500 µM; MIC [24]: > 500 µM; MIC [25]: > 500 µM
7 | NC(=O)c1cnccn1 [PYRAZINAMIDE] | – | > 100 µg/mL | 102 µM | – | – | – | – | – | -0.687 | – | – | – | – | – | – | – | – | – | – | – | –
8 | CCCCCCNc1nccnc1C(=O)NCc1ccccc1 | > 100 | > 100 µg/mL | > 100 µg/mL | > 100 | < 4.00 | 100 | > 100 | > 100 | 1.564 | > 100 | > 100 | < 4.00 | 100 | > 500 | > 500 | > 500 | > 500 | > 500 | > 500 | > 500 | MIC95 [21]: > 500 µM; MIC95 [22]: > 500 µM; MIC [23]: > 500 µM; MIC [24]: > 500 µM; MIC [25]: > 500 µM
